Legend:
[1] = system: human CD4+ T Lymphocytes; assay: Induction of apoptosis in CD3/CD28 costimulated T lymphocytes, annexin V / propidium iodide FACS; assay type: cell-based; conditions: for induction of apoptosis: 5 μM added at day 0, CD3/CD28 costimulated T lymphocytes; for induction of apoptosis / induction of apoptosis compared with azathioprine or 6-mercaptopurine mediated induction: 3, 4 or 5 days, FIGS. 2-4; for induction of apoptosis compared with azathioprine or 6-mercaptopurine mediated induction: 5 μM; for apoptosis induction: FIGS. 5 and 6, at least three experimental data sets, primary T cells of different donors
Experimental: Human peripheral blood mononuclear cells (PBMC) from 4 buffycoats were isolated using Ficoll-Hypaque gradients. PBMC were further purified using CD4 monoclonal antibodies attached to immunomagnetic microbeads according to the protocol provided by the manufacturer (Miltenyi Biotec). […] Azathioprine, 6-Mercaptopurine, V1, V2, V3, V4 or V5 were added to the T cell cultures at day 0 at a final concentration of 5 μM. To determine induction of apoptosis in these T lymphocytes, cells were analyzed by FACS. For FACS analysis, apoptotic cells were detected by staining with annexin V and propidium iodide using the Annexin V FITC Apoptosis Detection Kit I (PharMingen). In brief, T cells were washed twice in PBS, and the pellet was resuspended in annexin V binding buffer (PharMingen) at a concentration of 10^6 cells per milliliter. Annexin V FITC and propidium iodide were added (5 μl of each per 10^5 cells), Samples were gently mixed and incubated for 15 minutes at room temperature in the dark before FACS analysis.
• Annexin-positive, propidium iodide-negative cells (black bars) present the rate of early apoptotic cells. Annexin-positive, propidium iodide-positive cells (white bars) present late apoptotic or necrotic cells. • Induction of apoptosis=(Rate of apoptotic cells after indicated treatment)−(Rate of apoptosis of untreated cells) • V1, V2 and V3 were tested in 4 independent experiments. V4 and V5 were tested in 2 independent experiments.

[2] = system: caspase-3/7 in T cells; assay: Caspase-Glo 3/7 Assay in stimulated CD4+ T cells; assay type: cell-based, human; conditions: day three of culture; untreated cells = 100%; three experiments; FIG. 8
Experimental: FIG. 8: Caspase-graph: Luminescence value of untreated cells was defined as 100% Caspase activity. Due to their specific luminescence value the caspase activity of treated cells were calculated accordingly. Induction of Caspase activityx[%]=Caspase activityx[%]−Caspase activityuntreated[%]. Means±SEM (Standart Error of the Mean=Standard deviation/radical(n)) of three different experiments are presented.
In addition, an alternative method was performed for screening of group-D derivatives (FIG. 8). It was decided to analyse the activity of caspase-3/7 in T cells, which were treated with group-D derivatives. As compared to AnnexinV/PI staining this new method might have some advantages: • It is an easier protocol. Therefore there are fewer possibilities for individual errors. • Increased activity of caspase-3 is very specific for apoptosis. Therefore this method is very sensitive for the detection of apoptosis. There is no interfering influence of necrotic cells. • The measurement is done in duplicate. In this way there is an internal control.
The Caspase-Glo 3/7 Assay (Promega™) was used. This assay is based on a caspase dependent luminescent signal. Protocol: CD4^+ T cells were isolated from human blood by magnetic beads (Dynal). T lymphocytes were stimulated in complete RPMI-1640 medium (RPMI-1640+10% FCS+100 U/ml Penicillin/Streptomycin+3 mM L-Glutamin) for 3 days with coated antibodies to CD3 (0.04 μg/ml) and soluble CD28 antibodies (PharMingen™; 1 μg/ml) plus IL-2 (R & D Systems™, Wiesbaden, Germany; 40 U/ml) in 96-well plates. Cells were treated with different group-D derivatives or were left untreated. At day three of culture Caspase-3/7 Assay was performed. 25 μl of Caspase-Glo 3/7 reagent was added to each well. Probes were mixed gently for 2 minutes and incubated at room temperature for 30 minutes. Finally 100 μl of each probe were transferred to a white walled 96-well luminometer plate and analysed in a plate-reading luminometer. The added reagent contains a specific substrate of caspase-3 and caspase-7. Cleavage of this substrate by activated caspase-3 results in luciferase reaction. Luminescence is proportional to the amount of caspase activity present (FIG. 8)

[3] = target: Rac1 (Homo sapiens, UniProt P63000); conditions: cited from earlier work
[4] = Solubility in water; assay type: physicochemical

| Compound | induction of apoptosis [1] | induction of caspase activity [2] | also measured |
| --- | --- | --- | --- |
| 2′,3′-EDA-6-Thio-GTP [05B-0] | able to induce apoptosis | very effective | induction of apoptosis compared with azathioprine or 6-mercaptopurine mediated induction [1]: more pronounced and appeared earlier; apoptosis induction [1]: strongest candidate drug for apoptosis induction |
| Nc1nc2c(ncn2[C@@H]2O[C@H](COP(=O)(O)OP(=O)(O)OP(=O)(O)O)[C@@H](O)[C@H]2O)c(=S)[nH]1 [6-Thio-GTP, 6-thioguanosine triphosphate] | – | able to induce caspase activity | apoptosis induction [1]: on average was not able to induce apoptosis; affinity to Rac1, fold less in comparison with GTP [3]: 20 fold |
| Cn1ccc(NC(=O)[C@@H]2OC3C(COP(=O)(O)OP(=O)(O)OP(=O)(O)O)OC(n4cnc5c(=S)[nH]c(N)nc54)C3O2)n1 (some centres unmarked) [06D-13] | – | promising | – |
| Cc1cc(CNC(=O)[C@@H]2OC3C(COP(=O)(O)OP(=O)(O)OP(=O)(O)O)OC(n4cnc5c(=S)[nH]c(N)nc54)C3O2)nn1C (some centres unmarked) [06D-14] | – | promising | – |
| NCCCCCCNc1nc2c(ncn2[C@@H]2O[C@H](CO)[C@@H](O)[C@H]2O)c(=O)[nH]1 [V2, N-2-(6″-Aminohexyl)-guanosine] | not able to induce apoptosis | – | – |
| CC(=O)NCCCCCCNc1nc(O)c2ncn([C@@H]3O[C@H](COC(C)=O)C(OC(C)=O)C3OC(C)=O)c2n1 (some centres unmarked) [V3, 2′,3′,5′,o-Triacetyl-N-2-(Acetyl-6″-aminohexyl)-guanosine] | not able to induce apoptosis | – | solubility in water [4]: not soluble in water |
| CC(=O)OC[C@H]1O[C@@H](n2cnc3c(S)nc(NCCCCCCNC(C)=S)nc32)C(OC(C)=O)C1OC(C)=O (some centres unmarked) [V4, 2′,3′,5′-Triacetyl-N-2-(6″-thioacetamide-hexyl)-6-Thioguanosine] | not able to induce apoptosis | – | solubility in water [4]: not soluble in water |
| Aspartate-2,3′-EDA-6-Thio-GTP [05B-1] | – | less effective than 05B-0 | – |
| TAMRA-EDA-6-Thio-GTP [V5] | able to induce apoptosis | – | induction of apoptosis compared with azathioprine or 6-mercaptopurine mediated induction [1]: more pronounced and appeared earlier |

— patent US8114986B2, “Analogous compounds of 6-thioguanosine triphosphate, their use in medical fields and processes for their preparation” (Giuliani International Limited, priority 2005, dated 2012)
